Experimental data as given in patent US11229614B2, “Supramolecular hydrogel applications to the carotid bodies to treat hypertension and sleep apnea in obesity” (THE JOHNS HOPKINS UNIVERSITY, priority 2017, dated 2022).
Read-outs that look alike come from different tables or passages of the source.

Tests used:
C57BL/6J mice = type: in vivo
Description: Blood pressure telemetry (FIG. 2) and sleep studies in mice. […] Then blood pressure was measured at baseline (Day 0). The leptin osmotic pump was implanted SC to deliver 120 μg/day of the hormone, which increased leptin levels to 40-50 ng/ml which corresponded to plasma leptin levels in severely obese mice. Blood pressure measured after 2 days of leptin infusion (Day 2) followed by removal of the osmotic pump. On Day 5, the carotid artery bifurcation was exposed and co-assembled FTY720-PA filamentous nanostructures were applied bilaterally (5 μg/side). […] The leptin osmotic pump was reinserted on Day 9 and blood pressure was measured after two days of leptin infusion on Day 11. The pump was removed on Day 12 and reinserted on Day 20 followed by blood pressure measurement on Day 22. […] Leptin increased mean arteria blood pressure by 13±6 mm Hg and this effect was abolished by FTY720. […] Allowing 10% attrition rate, it will require 28 male (14 DIO and 14 lean) and 28 female C57BL/6J mice (14 DIO and 14 lean).

[1] = humans; cited from earlier work
[2] = mice; cited from earlier work
[3] = Maximum solubility at pH 7.4; type: physicochemical

solubility [3] [µM] | Compound | increase of mean arterial blood pressure (C57BL/6J mice; leptin infusion) [mm Hg] | half-life [1] [h] | half-life [2] [h] | leptin-induced hypertension (C57BL/6J mice; FTY720 in Matrigel at 0.3 mg/kg/day applied to CB (FIG. 2)) | leptin-induced hypertension (C57BL/6J mice; administered to CB locally) | effect on leptin-induced increase of mean arterial blood pressure (C57BL/6J mice; mouse, in vivo)
 | Leptin: hormone delivered by SC osmotic pump to induce hypertension | 13±6 |  |  |  |  | 
81 | CCCCCCCCc1ccc(CCC(N)(CO)CO)cc1.Cl [FTY720, 2-Amino-2-[2-(4-octyl-phenyl)-ethyl]-propane-1,3-diol hydrochloride] |  | 170 | 9 | abolished leptin-induced hypertension | abolished leptin-induced hypertension | abolished
